Test results as given in the NIST ThermoML archive (doi:10.1021/je500669y).

Experiment: xn = mol fraction of the nth substance listed
Conditions: Gas, isochoric method

F/C=C/C(F)(F)F [trans-1,3,3,3-tetrafluoropropene] + C
Conditions | specific volume [m3/kg]
263.12 K, 541.7 kPa, x2 = 0.747 | 0.092
273.11 K, 305.7 kPa, x2 = 0.513 | 0.113
273.14 K, 216.8 kPa, x2 = 0.31 | 0.12
273.19 K, 565.7 kPa, x2 = 0.747 | 0.092
283.07 K, 225.4 kPa, x2 = 0.31 | 0.12
283.29 K, 1326.6 kPa, x2 = 0.748 | 0.041
283.3 K, 588.9 kPa, x2 = 0.747 | 0.092
283.38 K, 319 kPa, x2 = 0.513 | 0.113
288.33 K, 665.7 kPa, x2 = 0.496 | 0.051
293.03 K, 233.9 kPa, x2 = 0.31 | 0.12
293.03 K, 611.2 kPa, x2 = 0.747 | 0.092
293.06 K, 330.6 kPa, x2 = 0.513 | 0.113
293.17 K, 1381 kPa, x2 = 0.748 | 0.041
293.26 K, 456.1 kPa, x2 = 0.251 | 0.056
293.33 K, 681.4 kPa, x2 = 0.496 | 0.051
303.15 K, 474.1 kPa, x2 = 0.251 | 0.056
303.16 K, 242.4 kPa, x2 = 0.31 | 0.12
303.16 K, 711.2 kPa, x2 = 0.496 | 0.051
303.16 K, 1435.1 kPa, x2 = 0.748 | 0.041
303.22 K, 634.1 kPa, x2 = 0.747 | 0.092
303.23 K, 342.7 kPa, x2 = 0.513 | 0.113
313.15 K, 251 kPa, x2 = 0.31 | 0.121
313.15 K, 995.8 kPa, x2 = 0.261 | 0.026
313.19 K, 354.4 kPa, x2 = 0.513 | 0.113
313.2 K, 1488.8 kPa, x2 = 0.748 | 0.041
313.22 K, 1512.1 kPa, x2 = 0.513 | 0.024
313.23 K, 657.6 kPa, x2 = 0.747 | 0.092
313.24 K, 738.5 kPa, x2 = 0.496 | 0.051
323.17 K, 259 kPa, x2 = 0.31 | 0.121
323.17 K, 510.4 kPa, x2 = 0.251 | 0.056
323.19 K, 366.1 kPa, x2 = 0.513 | 0.113
323.19 K, 765.2 kPa, x2 = 0.496 | 0.051
323.21 K, 1040.8 kPa, x2 = 0.261 | 0.026
323.27 K, 1573.2 kPa, x2 = 0.513 | 0.024
323.29 K, 1542.4 kPa, x2 = 0.748 | 0.041
323.35 K, 680.5 kPa, x2 = 0.747 | 0.092
333.18 K, 1636.8 kPa, x2 = 0.513 | 0.024
333.2 K, 702.6 kPa, x2 = 0.747 | 0.092
333.2 K, 792 kPa, x2 = 0.496 | 0.051
333.25 K, 378.1 kPa, x2 = 0.513 | 0.113
333.25 K, 1083.7 kPa, x2 = 0.261 | 0.026
333.25 K, 1595.7 kPa, x2 = 0.748 | 0.041
333.27 K, 267.5 kPa, x2 = 0.31 | 0.121
343.11 K, 546.9 kPa, x2 = 0.251 | 0.056
343.12 K, 1126.5 kPa, x2 = 0.261 | 0.026
343.16 K, 389.7 kPa, x2 = 0.513 | 0.113
343.18 K, 275.8 kPa, x2 = 0.31 | 0.121
343.23 K, 818.7 kPa, x2 = 0.496 | 0.051
343.23 K, 1648.5 kPa, x2 = 0.748 | 0.041
343.25 K, 725.3 kPa, x2 = 0.747 | 0.092
343.34 K, 1700.6 kPa, x2 = 0.513 | 0.024
353.15 K, 747.4 kPa, x2 = 0.747 | 0.092
353.17 K, 284.2 kPa, x2 = 0.31 | 0.121
353.22 K, 401.5 kPa, x2 = 0.513 | 0.113
353.23 K, 1167.7 kPa, x2 = 0.261 | 0.026
353.23 K, 1701.4 kPa, x2 = 0.748 | 0.041
353.24 K, 845 kPa, x2 = 0.496 | 0.051
353.34 K, 1759 kPa, x2 = 0.513 | 0.024
363.15 K, 292.6 kPa, x2 = 0.31 | 0.121
363.16 K, 1209.5 kPa, x2 = 0.261 | 0.026
363.19 K, 1820.5 kPa, x2 = 0.513 | 0.024
363.21 K, 770.2 kPa, x2 = 0.747 | 0.092
363.24 K, 413.1 kPa, x2 = 0.513 | 0.114
363.25 K, 871.2 kPa, x2 = 0.496 | 0.051
363.28 K, 1754.1 kPa, x2 = 0.748 | 0.041
373.1 K, 424.6 kPa, x2 = 0.513 | 0.114
373.1 K, 1251.1 kPa, x2 = 0.261 | 0.026
373.11 K, 1881.5 kPa, x2 = 0.513 | 0.024
373.2 K, 301 kPa, x2 = 0.31 | 0.121
373.23 K, 600.7 kPa, x2 = 0.251 | 0.056
373.23 K, 897.8 kPa, x2 = 0.496 | 0.051
373.27 K, 792.6 kPa, x2 = 0.747 | 0.092
373.27 K, 1806.6 kPa, x2 = 0.748 | 0.041
383.17 K, 1940.6 kPa, x2 = 0.513 | 0.025
383.18 K, 1291.3 kPa, x2 = 0.261 | 0.026
383.25 K, 815 kPa, x2 = 0.747 | 0.092
383.28 K, 309.5 kPa, x2 = 0.31 | 0.121
383.3 K, 437 kPa, x2 = 0.513 | 0.114
383.31 K, 1859.5 kPa, x2 = 0.748 | 0.041
383.33 K, 924.1 kPa, x2 = 0.496 | 0.051
393.06 K, 1327 kPa, x2 = 0.261 | 0.026
393.1 K, 2000.7 kPa, x2 = 0.513 | 0.025
393.13 K, 317.8 kPa, x2 = 0.31 | 0.121
393.14 K, 837.2 kPa, x2 = 0.747 | 0.092
393.22 K, 448.6 kPa, x2 = 0.513 | 0.114
393.32 K, 950.3 kPa, x2 = 0.496 | 0.051
393.33 K, 1911.9 kPa, x2 = 0.748 | 0.041
403.03 K, 2059.7 kPa, x2 = 0.513 | 0.025
403.12 K, 1366.9 kPa, x2 = 0.261 | 0.026
403.17 K, 460.3 kPa, x2 = 0.513 | 0.114
403.18 K, 326.4 kPa, x2 = 0.31 | 0.121
403.21 K, 860 kPa, x2 = 0.747 | 0.092
403.26 K, 1963.8 kPa, x2 = 0.748 | 0.041
403.27 K, 976.2 kPa, x2 = 0.496 | 0.051
412.96 K, 2117.2 kPa, x2 = 0.513 | 0.025
413.15 K, 1405.5 kPa, x2 = 0.261 | 0.026
413.18 K, 472 kPa, x2 = 0.513 | 0.114
413.23 K, 881.9 kPa, x2 = 0.747 | 0.092
413.29 K, 2016 kPa, x2 = 0.748 | 0.041
413.3 K, 1002.5 kPa, x2 = 0.496 | 0.052
413.34 K, 334.9 kPa, x2 = 0.31 | 0.121
413.38 K, 671.6 kPa, x2 = 0.251 | 0.056
